The values that follow come from patent publication US7893062B2, “Pyrrolidine derivatives as dual NK1/NK3 receptor antagonists” (Hoffmann-La Roche Inc., priority 2007, dated 2011).

Structures are written as SMILES.

Test [1] has as its target human NK1 receptor (Homo sapiens, UniProt P25103). Kind of test: NK1 receptor affinity, [3H]substance P displacement in CHO cell membranes. It counts as binding. As to conditions: human NK1 receptor in CHO cells, [3H]substance P 0.6 nM. On the procedure: The affinity of test compounds for the NK1 receptor was evaluated at human NK1 receptors in CHO cells infected with the human NK1 receptor (using the Semliki virus expression system) and radiolabelled with [^3H]substance P (final concentration 0.6 nM). Binding assays were performed in HEPES buffer (50 mM, pH 7.4) containing BSA (0.04%) leupeptin (16.8 μg/ml), MnCl2 (3 mM) and phosphoramidon (2 μM). Binding assays consisted of 250 μl of membrane suspension (approximately 1.5 μg/well in a 96 well plate), […] of buffer of displacing agent and 125 μl of [^3H]substance P. Displacement curves were determined with at least seven concentrations of the compound. The assay tubes were incubated for 60 min at room temperature after which time the tube contents were rapidly filtered under vacuum through GF/C filters presoaked for 60 min with PEI (0.3%) with 3×1 ml washes of HEPES buffer (50 mM, pH 7.4). The radioactivity retained on the filters was measured by scintillation counting. All assays were performed in duplicate in at least 2 separate experiments. NK3

For test [2], the target named is T1, human NK3 (hNK3) receptor (Homo sapiens, UniProt P29371).
T1 construct: expressed in transfected cells
T1 sequence (P29371 1-465): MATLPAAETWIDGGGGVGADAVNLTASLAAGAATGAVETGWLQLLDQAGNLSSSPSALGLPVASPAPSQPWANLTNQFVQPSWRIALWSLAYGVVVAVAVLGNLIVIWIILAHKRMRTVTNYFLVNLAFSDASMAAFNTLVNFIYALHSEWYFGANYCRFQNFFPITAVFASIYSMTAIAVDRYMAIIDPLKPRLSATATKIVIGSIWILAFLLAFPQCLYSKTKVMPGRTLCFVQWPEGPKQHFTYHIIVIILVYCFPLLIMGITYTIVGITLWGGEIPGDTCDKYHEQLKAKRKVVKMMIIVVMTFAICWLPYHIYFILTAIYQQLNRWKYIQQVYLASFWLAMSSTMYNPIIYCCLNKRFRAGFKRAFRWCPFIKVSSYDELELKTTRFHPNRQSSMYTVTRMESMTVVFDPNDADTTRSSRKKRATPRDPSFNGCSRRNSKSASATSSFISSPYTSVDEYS
Put plainly: Recombinant hNK3 receptor affinity, [3H]SR142801 displacement. The class given is binding. As to conditions: recombinant hNK3 membranes, [3H]SR142801 0.3 nM. Here is the method:
Recombinant human NK3 (hNK3) receptor affinity was determined in a 96 well plate assay, using [^3H]SR142801 (final concentration 0.3 nM) to radiolabel the hNK3 receptor in the presence of 10 concentrations of competing compound or buffer. Non specific binding was determined using 10 μM SB222200. Assay buffer consisted of Tris-HCl (50 mM, pH 7.4), BSA (0.1%), MnCl2 (4 mM) and phosphoramidon (1 μM). Membrane preparations of hNK3 receptors (approximately 2.5 μg/well in a 96 well plate) were used to initiate the incubation for 90 min at room temperature. This assay was terminated by rapid filtration under vacuum through GF/C filters, presoaked for 90 min with PEI (0.3%), with 3×0.5 ml washes of ice-cold Tris buffer (50 mM, pH 7.4) containing 0.1% BSA. The radioactivity retained on the filters was measured by scintillation counting. All assays were performed in duplicate in at least two separate experiments.

For test [3] the following is noted: phase II trial, cited from earlier work.

human NK1 receptor, sequence (P25103 whole entry): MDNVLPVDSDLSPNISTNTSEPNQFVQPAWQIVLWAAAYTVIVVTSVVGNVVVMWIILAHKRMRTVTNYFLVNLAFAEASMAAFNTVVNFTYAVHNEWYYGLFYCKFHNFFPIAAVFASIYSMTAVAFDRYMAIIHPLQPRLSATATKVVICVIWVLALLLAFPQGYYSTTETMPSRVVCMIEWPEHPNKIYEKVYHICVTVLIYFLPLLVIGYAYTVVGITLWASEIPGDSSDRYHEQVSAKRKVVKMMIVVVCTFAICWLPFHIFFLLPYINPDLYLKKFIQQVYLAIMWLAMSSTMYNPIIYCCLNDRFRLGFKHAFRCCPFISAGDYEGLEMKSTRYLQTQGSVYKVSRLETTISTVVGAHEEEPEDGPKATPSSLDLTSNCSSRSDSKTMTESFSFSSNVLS

As for `CC(=O)N1CCN(C(=O)N2C[C@@H](N(C)C(=O)C(C)(C)c3cc(C(F)(F)F)cc(C(F)(F)F)c3)[C@H](c3ccc(F)cc3)C2)CC1` (racemic) [Example 16, rac-N-[(3S,4R)-1-(4-Acetyl-piperazine-1-carbonyl)-4-(4-fluoro-phenyl)-pyrrolidin-3-yl]-2-(3,5-bis-trifluoromethyl-phenyl)-N-methyl-isobutyramide], the inhibition constant (Ki) in test [1] is 0.00141 µM; in test [2], 0.309 µM.

Consider `Cc1cc(F)ccc1[C@@H]1CN(C(=O)N2CCN(S(C)(=O)=O)CC2)C[C@H]1N(C)C(=O)C(C)(C)c1cc(C(F)(F)F)cc(C(F)(F)F)c1` (racemic) [Example 28, rac-2-(3,5-Bis-trifluoromethyl-phenyl)-N-[(3S,4R)-4-(4-fluoro-2-methyl-phenyl)-1-(4-methanesulfonyl-piperazine-1-carbonyl)-pyrrolidin-3-yl]-N-methyl-isobutyramide], for which the Ki in test [1] was 0.000689 µM; in test [2], 0.137 µM.

Turning to `CC(=O)N(C)C1(c2ccccc2)CCN(CCC[C@]2(c3ccc(Cl)c(Cl)c3)CCCN(C(=O)c3ccccc3)C2)CC1` [SR 142,801, Osanetant], the “activity on positive symptoms of schizophrenia” value in test [3] (altered behaviour, delusion, hallucinations, extreme emotions, excited motor activity, incoherent speech) is given as “active”. The “activity in the treatment of negative symptoms of schizophrenia” value in test [3] (depression, anhedonia, social isolation, memory and attention deficits) is “inactive”.

For `CN(C(=O)C(C)(C)c1cc(C(F)(F)F)cc(C(F)(F)F)c1)[C@@H]1CN(C(=O)N2CCN(S(C)(=O)=O)CC2)C[C@H]1c1ccccc1` (racemic) [Example 22, rac-2-(3,5-Bis-trifluoromethyl-phenyl)-N-[(3S,4R)-1-(4-methanesulfonyl-piperazine-1-carbonyl)-4-phenyl-pyrrolidin-3-yl]-N-methyl-isobutyramide], the results for the Ki in test [1] and in test [2] were 0.000875 µM and 0.203 µM, respectively.

In the case of `CN(C(=O)C(C)(C)c1cc(Cl)cc(Cl)c1)[C@@H]1CN(C(=O)N2CCN(S(C)(=O)=O)CC2)C[C@H]1c1ccc(Cl)cc1` (racemic) [Example 55, rac-N-[(3S,4R)-4-(4-Chloro-phenyl)-1-(4-methanesulfonyl-piperazine-1-carbonyl)-pyrrolidin-3-yl]-2-(3,5-dichloro-phenyl)-N-methyl-isobutyramide], the values for the Ki in test [1] and in test [2] were 0.00316 µM and 0.03 µM, respectively.

On to `Cc1cc(F)ccc1[C@@H]1CN(C(=O)N2CCOCC2)C[C@H]1N(C)C(=O)C(C)(C)c1cc(C(F)(F)F)cc(C(F)(F)F)c1` (racemic) [Example 27, rac-2-(3,5-Bis-trifluoromethyl-phenyl)-N-[(3S,4R)-4-(4-fluoro-2-methyl-phenyl)-1-(morpholine-4-carbonyl)-pyrrolidin-3-yl]-N-methyl-isobutyramide], for which the values for the Ki in test [1] and in test [2] were 0.000341 µM and 0.276 µM, respectively.

For the compound `CN(C(=O)C(C)(C)c1cc(C(F)(F)F)cc(C(F)(F)F)c1)[C@@H]1CN(C(=O)NCCO)C[C@H]1c1ccc(F)cc1` (racemic) [Example 26, rac-(3S,4R)-3-{[2-(3,5-Bis-trifluoromethyl-phenyl)-2-methyl-propionyl]-methyl-amino}-4-(4-fluoro-phenyl)-pyrrolidine-1-carboxylic acid (2-hydroxy-ethyl)-amide], the Ki in test [1] worked out at 0.000634 µM; in test [2], 0.212 µM.

Regarding `CN(C(=O)C(C)(C)c1cc(Cl)cc(Cl)c1)[C@@H]1CN(C(=O)N2CCOCC2)C[C@H]1c1ccc(F)cc1` (racemic) [Example 24, rac-2-(3,5-Dichloro-phenyl)-N-[(3S,4R)-4-(4-fluoro-phenyl)-1-(morpholine-4-carbonyl)-pyrrolidin-3-yl]-N-methyl-isobutyramide], the Ki in test [1] was 0.00192 µM; in test [2] it was 0.2 µM.

As to `CN(C(=O)C(C)(C)c1cc(C(F)(F)F)cc(C(F)(F)F)c1)[C@@H]1CN(C(=O)N2CCOCC2)C[C@H]1c1ccc(Cl)cc1` (racemic) [Example 2, rac-2-(3,5-Bis-trifluoromethyl-phenyl)-N-[(3S,4R)-4-(4-chloro-phenyl)-1-(morpholine-4-carbonyl)-pyrrolidin-3-yl]-N-methyl-isobutyramide], the Ki is 0.00235 µM in test [1] and 0.457 µM in test [2].

With `CN(C(=O)C(C)(C)c1cc(C(F)(F)F)cc(C(F)(F)F)c1)[C@@H]1CN(C(=O)N2CCN(S(C)(=O)=O)CC2)C[C@H]1c1ccc(F)cc1` (racemic) [Example 15, rac-2-(3,5-Bis-trifluoromethyl-phenyl)-N-[(3S,4R)-4-(4-fluoro-phenyl)-1-(4-methanesulfonyl-piperazine-1-carbonyl)-pyrrolidin-3-yl]-N-methyl-isobutyramide], the inhibition constant Ki is 0.00206 µM in test [1] and 0.155 µM in test [2].

Consider `CN(C(=O)C(C)(C)c1cc(Cl)cc(Cl)c1)[C@@H]1CN(C(=O)N2CCN(S(C)(=O)=O)CC2)C[C@H]1c1ccc(F)cc1` (racemic) [Example 23, rac-2-(3,5-Dichloro-phenyl)-N-[(3S,4R)-4-(4-fluoro-phenyl)-1-(4-methanesulfonyl-piperazine-1-carbonyl)-pyrrolidin-3-yl]-N-methyl-isobutyramide], for which the inhibitory constant (Ki) came to 0.00112 µM in test [1] and 0.0924 µM in test [2].

As to `CN(C(=O)C(C)(C)c1cc(C(F)(F)F)cc(C(F)(F)F)c1)[C@@H]1CN(C(=O)N(CCO)CCO)C[C@H]1c1ccc(F)cc1` (racemic) [Example 21, rac-(3S,4R)-3-{[2-(3,5-Bis-trifluoromethyl-phenyl)-2-methyl-propionyl]-methyl-amino}-4-(4-fluoro-phenyl)-pyrrolidine-1-carboxylic acid bis-(2-hydroxy-ethyl)-amide], the Ki in test [1] worked out at 0.00108 µM; in test [2], 0.204 µM.
